We go through 24 compounds from ChEMBL document CHEMBL3217552, “Novel benzothiazole derivatives with a broad antifungal spectrum: design, synthesis and structureactivity relationships” (2013).

For one experiment, the system named is Trichophyton rubrum. The experiment is described as follows: Antifungal activity against Trichophyton rubrum after 72 hrs by serial dilution method. Format: functional.
A further experiment relates to Candida parapsilosis. The experiment is described as follows: Antifungal activity against Candida parapsilosis after 24 hrs by serial dilution method. Format: functional. The note with it: Lodderomyces parapsilosis.
Another experiment relates to Nannizzia gypsea. The experiment is described as follows: Antifungal activity against Microsporum gypseum after 72 hrs by serial dilution method. Format: functional.
Experiment [1] has as its system Candida albicans. The experiment is described as follows: Antifungal activity against Candida albicans after 24 hrs by serial dilution method. Format: functional.
In a further experiment the test system is Cryptococcus neoformans. The experiment is described as follows: Antifungal activity against Cryptococcus neoformans after 72 hrs by serial dilution method. Format: functional.
Another experiment concerns Nakaseomyces glabratus. Kind of experiment: Antifungal activity against Candida glabrata after 24 hrs by serial dilution method. Format: functional.
In experiment [2] the test system is Candida albicans. Kind of experiment: Antifungal activity against Candida albicans SC5314 infected in Caenorhabditis elegans assessed as nematode survival at 16 ug/ml after 144 hrs by serial dilution method. The conditions noted are these: SC5314, 144 h. Format: functional.
The subject of experiment [3] is Candida albicans. Kind of experiment: Antifungal activity against Candida albicans SC5314 infected in Caenorhabditis elegans assessed as nematode survival at 32 ug/ml after 144 hrs by serial dilution method. Format: functional, organism-based.

In brackets after ≈: the same amount, converted by molar mass. Activity calls are given as the source filed them. No cut-off for these calls is given here.

What is called MIC80 is the lowest concentration that inhibits either 80% of growth or 80% of the strains tested, depending on the study. Read a low MIC80 as greater potency. With `O=C(Nc1nc2ccc(NC(=O)[C@@H]3CCC[C@H](NCc4cnc5ccccc5c4)C3)cc2s1)C1CCCC1`, the MIC80 is 8 µg/mL (≈ 15.2 µM) with Trichophyton rubrum; 8 µg/mL (≈ 15.2 µM) with Candida parapsilosis; more than 64 µg/mL in the experiment with Nannizzia gypsea; 8 µg/mL (≈ 15.2 µM) with Candida albicans [1]; 4 µg/mL (≈ 7.58 µM) against Cryptococcus neoformans; more than 64 µg/mL in the experiment with Nakaseomyces glabratus.
For the compound `O=C(Nc1nc2ccc(NC(=O)[C@@H]3CCC[C@H](NCc4ccc5ccccc5c4)C3)cc2s1)C1CCCC1` (racemic), the MIC80 is more than 64 µg/mL in the experiment with Trichophyton rubrum; more than 64 µg/mL against Candida parapsilosis; more than 64 µg/mL with Nannizzia gypsea; 4 µg/mL (≈ 7.59 µM) in the experiment on Candida albicans [1]; more than 64 µg/mL in the experiment with Cryptococcus neoformans; more than 64 µg/mL with Nakaseomyces glabratus.
Turning to `O=C(Nc1nc2ccc(NC(=O)[C@@H]3CCC[C@H](NCc4ccc5ccccc5c4Br)C3)cc2s1)C1CCCC1` (relative stereo), the MIC80 is 64 µg/mL (≈ 106 µM) in the experiment on Trichophyton rubrum; more than 64 µg/mL in the experiment on Candida parapsilosis; 64 µg/mL (≈ 106 µM) in the experiment with Nannizzia gypsea; more than 64 µg/mL in the experiment with Candida albicans [1]; more than 64 µg/mL in the experiment with Cryptococcus neoformans; more than 64 µg/mL in the experiment with Nakaseomyces glabratus.
Turning to `COc1ccc2cc(CN[C@H]3CCC[C@@H](C(=O)Nc4ccc5nc(NC(=O)C6CCCC6)sc5c4)C3)ccc2c1` (relative stereo), the MIC80 with Trichophyton rubrum, against Candida parapsilosis, with Nannizzia gypsea, in the experiment on Candida albicans [1], against Cryptococcus neoformans and in the experiment on Nakaseomyces glabratus was more than 64 µg/mL in each case.
Turning to `O=C(Nc1nc2ccc(NC(=O)[C@@H]3CCC[C@H](NCc4cccc5ccccc45)C3)cc2s1)C1CCCC1` (relative stereo), the MIC80 against Trichophyton rubrum, in the experiment on Candida parapsilosis, in the experiment on Nannizzia gypsea, against Candida albicans [1], with Cryptococcus neoformans and against Nakaseomyces glabratus was more than 64 µg/mL throughout.
In the case of `COc1ccc2ccccc2c1CN[C@H]1CCC[C@@H](C(=O)Nc2ccc3nc(NC(=O)C4CCCC4)sc3c2)C1` (relative stereo), the MIC80 in the experiment with Trichophyton rubrum was 64 µg/mL (≈ 115 µM); with Candida parapsilosis, more than 64 µg/mL; against Nannizzia gypsea it was 64 µg/mL (≈ 115 µM); against Candida albicans [1], more than 64 µg/mL; against Cryptococcus neoformans, more than 64 µg/mL; against Nakaseomyces glabratus it was more than 64 µg/mL.
In the case of `COc1ccc(CN[C@H]2CCC[C@@H](C(=O)Nc3ccc4nc(NC(=O)C5CCCC5)sc4c3)C2)c2ccccc12` (relative stereo), the MIC80 against Trichophyton rubrum, in the experiment with Candida parapsilosis, with Nannizzia gypsea, against Candida albicans [1], in the experiment with Cryptococcus neoformans and against Nakaseomyces glabratus was more than 64 µg/mL in each case.
As to `CCOc1ccc2ccccc2c1CN[C@H]1CCC[C@@H](C(=O)Nc2ccc3nc(NC(=O)C4CCCC4)sc3c2)C1` (relative stereo), the MIC80 was 64 µg/mL (≈ 112 µM) against Trichophyton rubrum; more than 64 µg/mL against Candida parapsilosis; 64 µg/mL (≈ 112 µM) in the experiment with Nannizzia gypsea; more than 64 µg/mL in the experiment with Candida albicans [1]; more than 64 µg/mL in the experiment on Cryptococcus neoformans; more than 64 µg/mL in the experiment with Nakaseomyces glabratus.
For `O=C(Nc1nc2ccc(NC(=O)[C@@H]3CCC[C@H](NCc4ccc5ccccc5n4)C3)cc2s1)C1CCCC1` (relative stereo), the MIC80 in the experiment on Trichophyton rubrum, with Candida parapsilosis, in the experiment on Nannizzia gypsea, in the experiment with Candida albicans [1], in the experiment on Cryptococcus neoformans and against Nakaseomyces glabratus was more than 64 µg/mL each time.
Turning to `O=C(Nc1nc2ccc(NC(=O)[C@@H]3CCC[C@H](NCc4cc5ccccc5nc4Cl)C3)cc2s1)C1CCCC1` (relative stereo), the MIC80 in the experiment on Trichophyton rubrum, against Candida parapsilosis, with Nannizzia gypsea, in the experiment with Candida albicans [1], against Cryptococcus neoformans and with Nakaseomyces glabratus was more than 64 µg/mL in each case.
For `O=C(Nc1nc2ccc(NC(=O)[C@@H]3CCC[C@H](NCC4CNc5ccccc5C4)C3)cc2s1)C1CCCC1` (relative stereo), the MIC80 was more than 64 µg/mL with Trichophyton rubrum; more than 64 µg/mL against Candida parapsilosis; 64 µg/mL (≈ 120 µM) against Nannizzia gypsea; 32 µg/mL (≈ 60.2 µM) against Candida albicans [1]; more than 64 µg/mL in the experiment with Cryptococcus neoformans; more than 64 µg/mL against Nakaseomyces glabratus.
Turning to `O=C(Nc1nc2ccc(NC(=O)[C@@H]3CCC[C@H](NCc4ccnc5ccccc45)C3)cc2s1)C1CCCC1` (relative stereo), the MIC80 in the experiment with Trichophyton rubrum is more than 64 µg/mL; against Candida parapsilosis it was more than 64 µg/mL; in the experiment on Nannizzia gypsea, 16 µg/mL (≈ 30.3 µM); in the experiment with Candida albicans [1], more than 64 µg/mL; in the experiment with Cryptococcus neoformans, more than 64 µg/mL; against Nakaseomyces glabratus, more than 64 µg/mL.
Turning to `O=C(Nc1nc2ccc(NC(=O)[C@@H]3CCC[C@H](NCc4ccc5ncccc5c4)C3)cc2s1)C1CCCC1` (relative stereo), the MIC80 against Trichophyton rubrum was 4 µg/mL (≈ 7.58 µM); in the experiment with Candida parapsilosis it was 4 µg/mL (≈ 7.58 µM); against Nannizzia gypsea, more than 64 µg/mL; in the experiment on Candida albicans [1], 4 µg/mL (≈ 7.58 µM); against Cryptococcus neoformans, 4 µg/mL (≈ 7.58 µM); in the experiment on Nakaseomyces glabratus it was 0.125 µg/mL (≈ 0.237 µM). Moreover, the survival at 16 µg/mL with Candida albicans [2] is 60%.
Take `O=C(Nc1nc2ccc(NC(=O)[C@@H]3CCC[C@H](NCC4CCc5ncccc5C4)C3)cc2s1)C1CCCC1` (relative stereo): the MIC80 was more than 64 µg/mL against Trichophyton rubrum; 64 µg/mL (≈ 120 µM) in the experiment with Candida parapsilosis; more than 64 µg/mL against Nannizzia gypsea; 16 µg/mL (≈ 30.1 µM) against Candida albicans [1]; more than 64 µg/mL in the experiment on Cryptococcus neoformans; more than 64 µg/mL against Nakaseomyces glabratus.
As for `O=C(Nc1nc2ccc(NC(=O)[C@@H]3CCC[C@H](NCc4cccc5cccnc45)C3)cc2s1)C1CCCC1` (relative stereo), the MIC80 in the experiment with Trichophyton rubrum, against Candida parapsilosis, in the experiment on Nannizzia gypsea, with Candida albicans [1], against Cryptococcus neoformans and against Nakaseomyces glabratus was more than 64 µg/mL each time.
As for `O=C(Nc1nc2ccc(NC(=O)[C@@H]3CCC[C@H](NCc4ccc5ccccc5c4)C3)cc2o1)C1CCCC1` (relative stereo), the MIC80 is more than 64 µg/mL with Trichophyton rubrum; more than 64 µg/mL with Candida parapsilosis; 1 µg/mL (≈ 1.96 µM) in the experiment with Nannizzia gypsea; more than 64 µg/mL against Candida albicans [1]; more than 64 µg/mL in the experiment with Cryptococcus neoformans; more than 64 µg/mL against Nakaseomyces glabratus.
Take `O=C(Nc1nc2ccc(NC(=O)[C@@H]3CCC[C@H](NCc4ccc5ccccc5n4)C3)cc2o1)C1CCCC1` (relative stereo): the MIC80 with Trichophyton rubrum was more than 64 µg/mL; against Candida parapsilosis it was more than 64 µg/mL; with Nannizzia gypsea, 1 µg/mL (≈ 1.95 µM); in the experiment on Candida albicans [1] it was more than 64 µg/mL; against Cryptococcus neoformans, more than 64 µg/mL; against Nakaseomyces glabratus it was more than 64 µg/mL.
On to `O=C(Nc1ccc2nc(NC(=O)[C@@H]3CCC[C@H](NCc4ccc5ccccc5c4)C3)sc2c1)C1CCCC1` (relative stereo), for which the MIC80 is 32 µg/mL (≈ 60.8 µM) against Trichophyton rubrum; more than 64 µg/mL in the experiment with Candida parapsilosis; 32 µg/mL (≈ 60.8 µM) in the experiment with Nannizzia gypsea; 8 µg/mL (≈ 15.2 µM) against Candida albicans [1]; 32 µg/mL (≈ 60.8 µM) with Cryptococcus neoformans; 16 µg/mL (≈ 30.4 µM) against Nakaseomyces glabratus.
For `O=C(Nc1ccc2nc(NC(=O)[C@@H]3CCC[C@H](NCc4ccc5ccccc5n4)C3)sc2c1)C1CCCC1` (relative stereo), the MIC80 in the experiment with Trichophyton rubrum is more than 64 µg/mL; in the experiment on Candida parapsilosis, more than 64 µg/mL; in the experiment with Nannizzia gypsea, 64 µg/mL (≈ 121 µM); in the experiment with Candida albicans [1] it was more than 64 µg/mL; with Cryptococcus neoformans, more than 64 µg/mL; with Nakaseomyces glabratus, more than 64 µg/mL.
`O=C(Nc1ccc2nc(NC(=O)[C@@H]3CCC[C@H](NCc4cnc5ccccc5c4)C3)sc2c1)C1CCCC1` (relative stereo): the MIC80 is more than 64 µg/mL in the experiment on Trichophyton rubrum; more than 64 µg/mL against Candida parapsilosis; 64 µg/mL (≈ 121 µM) with Nannizzia gypsea; more than 64 µg/mL against Candida albicans [1]; more than 64 µg/mL in the experiment with Cryptococcus neoformans; more than 64 µg/mL with Nakaseomyces glabratus.
For the compound `O=C(Nc1ccc2nc(NC(=O)[C@@H]3CCC[C@H](NCc4ccnc5ccccc45)C3)sc2c1)C1CCCC1` (relative stereo), the MIC80 against Trichophyton rubrum was more than 64 µg/mL; against Candida parapsilosis it was more than 64 µg/mL; against Nannizzia gypsea, more than 64 µg/mL; in the experiment with Candida albicans [1], more than 64 µg/mL; against Cryptococcus neoformans it was 16 µg/mL (≈ 30.3 µM); against Nakaseomyces glabratus it was 16 µg/mL (≈ 30.3 µM).
Take `O=C(Nc1ccc2nc(NC(=O)[C@@H]3CCC[C@H](NCc4ccc5ncccc5c4)C3)sc2c1)C1CCCC1` (relative stereo): the MIC80 is more than 64 µg/mL in the experiment on Trichophyton rubrum; more than 64 µg/mL in the experiment on Candida parapsilosis; 32 µg/mL (≈ 60.6 µM) against Nannizzia gypsea; more than 64 µg/mL against Candida albicans [1]; more than 64 µg/mL against Cryptococcus neoformans; more than 64 µg/mL with Nakaseomyces glabratus.
In the case of `O=C(Nc1nc(-c2ccc(NC(=O)[C@H]3CCC[C@@H](NCc4ccc5ccccc5c4)C3)cc2)cs1)C1CCCC1` (relative stereo), the MIC80 in the experiment on Trichophyton rubrum was 32 µg/mL (≈ 57.9 µM); with Candida parapsilosis it was more than 64 µg/mL; in the experiment on Nannizzia gypsea it was 0.125 µg/mL (≈ 0.226 µM); in the experiment with Candida albicans [1] it was more than 64 µg/mL; against Cryptococcus neoformans, more than 64 µg/mL; against Nakaseomyces glabratus, more than 64 µg/mL.
For `OC(Cn1cncn1)(Cn1cncn1)c1ccc(F)cc1F` [FLUCONAZOLE], the MIC80 was 4 µg/mL (≈ 13.1 µM) in the experiment with Trichophyton rubrum; 2 µg/mL (≈ 6.53 µM) against Candida parapsilosis; 32 µg/mL (≈ 104 µM) against Nannizzia gypsea; 0.5 µg/mL (≈ 1.63 µM) against Candida albicans [1]; 16 µg/mL (≈ 52.2 µM) against Cryptococcus neoformans; 2 µg/mL (≈ 6.53 µM) with Nakaseomyces glabratus. Moreover, the result in the experiment on Candida albicans [3] was Active.
